Test results reported in ChEMBL document CHEMBL4507319 (2021).

Tests used:
Conditions in all cases: Compound concentration 1000.0 nM
[1] = biological target: Serine/threonine-protein kinase D3 (Homo sapiens) (UniProt O94806)
[2] = biological target: T1, Tyrosine-protein kinase ZAP-70 (Homo sapiens) (UniProt P43403)
T1 sequence (whole entry): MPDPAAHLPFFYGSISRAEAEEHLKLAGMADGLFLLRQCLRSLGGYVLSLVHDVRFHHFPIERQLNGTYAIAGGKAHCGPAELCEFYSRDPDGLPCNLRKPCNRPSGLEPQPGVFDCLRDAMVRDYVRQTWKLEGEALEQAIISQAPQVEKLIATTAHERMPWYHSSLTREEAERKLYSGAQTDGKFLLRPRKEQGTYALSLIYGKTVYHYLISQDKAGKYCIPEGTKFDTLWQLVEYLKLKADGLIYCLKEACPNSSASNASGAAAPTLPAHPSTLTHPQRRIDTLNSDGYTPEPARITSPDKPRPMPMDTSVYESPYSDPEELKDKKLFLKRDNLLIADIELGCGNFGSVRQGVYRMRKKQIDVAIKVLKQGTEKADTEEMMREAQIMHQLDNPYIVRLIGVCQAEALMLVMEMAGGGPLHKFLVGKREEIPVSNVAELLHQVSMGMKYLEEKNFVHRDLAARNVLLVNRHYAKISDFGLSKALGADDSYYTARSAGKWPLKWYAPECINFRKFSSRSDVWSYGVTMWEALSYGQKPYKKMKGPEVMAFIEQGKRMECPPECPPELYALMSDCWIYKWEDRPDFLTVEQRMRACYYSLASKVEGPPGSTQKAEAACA

[3] = biological target: Tyrosine-protein kinase JAK2 (Homo sapiens) (UniProt O60674)
Tyrosine-protein kinase JAK2 (Homo sapiens), sequence (O60674 whole entry): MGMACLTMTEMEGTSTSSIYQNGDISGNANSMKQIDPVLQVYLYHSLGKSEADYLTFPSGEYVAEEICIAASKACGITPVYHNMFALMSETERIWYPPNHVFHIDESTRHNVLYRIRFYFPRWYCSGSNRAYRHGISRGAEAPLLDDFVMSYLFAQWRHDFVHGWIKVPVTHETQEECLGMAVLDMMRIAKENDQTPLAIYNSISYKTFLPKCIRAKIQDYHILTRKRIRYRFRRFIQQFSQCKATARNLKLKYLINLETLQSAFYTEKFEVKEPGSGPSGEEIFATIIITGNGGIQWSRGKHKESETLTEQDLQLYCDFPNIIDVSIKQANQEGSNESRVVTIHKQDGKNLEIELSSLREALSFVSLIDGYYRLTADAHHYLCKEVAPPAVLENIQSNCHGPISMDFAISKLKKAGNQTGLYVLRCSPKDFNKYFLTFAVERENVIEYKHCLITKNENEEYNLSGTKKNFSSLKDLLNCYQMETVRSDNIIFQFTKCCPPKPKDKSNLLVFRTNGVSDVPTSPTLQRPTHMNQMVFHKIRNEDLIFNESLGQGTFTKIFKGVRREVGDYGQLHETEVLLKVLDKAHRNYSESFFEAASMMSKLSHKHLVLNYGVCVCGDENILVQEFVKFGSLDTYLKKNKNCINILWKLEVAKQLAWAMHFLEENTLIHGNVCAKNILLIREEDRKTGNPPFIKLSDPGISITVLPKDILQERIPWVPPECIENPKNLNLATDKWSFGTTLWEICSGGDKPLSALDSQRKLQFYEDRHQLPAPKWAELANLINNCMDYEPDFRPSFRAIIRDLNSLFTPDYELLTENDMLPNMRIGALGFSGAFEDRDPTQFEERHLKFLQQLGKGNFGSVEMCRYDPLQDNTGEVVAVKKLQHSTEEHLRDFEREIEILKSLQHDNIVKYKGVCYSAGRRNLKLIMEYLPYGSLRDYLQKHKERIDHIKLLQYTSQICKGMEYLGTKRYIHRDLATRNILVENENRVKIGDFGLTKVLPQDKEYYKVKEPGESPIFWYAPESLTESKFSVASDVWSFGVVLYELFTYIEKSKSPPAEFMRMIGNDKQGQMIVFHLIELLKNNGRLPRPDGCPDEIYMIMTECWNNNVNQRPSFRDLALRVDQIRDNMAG

[4] = biological target: T2, Serine/threonine-protein kinase TBK1 (Homo sapiens) (UniProt Q9UHD2)
T2 sequence (whole entry): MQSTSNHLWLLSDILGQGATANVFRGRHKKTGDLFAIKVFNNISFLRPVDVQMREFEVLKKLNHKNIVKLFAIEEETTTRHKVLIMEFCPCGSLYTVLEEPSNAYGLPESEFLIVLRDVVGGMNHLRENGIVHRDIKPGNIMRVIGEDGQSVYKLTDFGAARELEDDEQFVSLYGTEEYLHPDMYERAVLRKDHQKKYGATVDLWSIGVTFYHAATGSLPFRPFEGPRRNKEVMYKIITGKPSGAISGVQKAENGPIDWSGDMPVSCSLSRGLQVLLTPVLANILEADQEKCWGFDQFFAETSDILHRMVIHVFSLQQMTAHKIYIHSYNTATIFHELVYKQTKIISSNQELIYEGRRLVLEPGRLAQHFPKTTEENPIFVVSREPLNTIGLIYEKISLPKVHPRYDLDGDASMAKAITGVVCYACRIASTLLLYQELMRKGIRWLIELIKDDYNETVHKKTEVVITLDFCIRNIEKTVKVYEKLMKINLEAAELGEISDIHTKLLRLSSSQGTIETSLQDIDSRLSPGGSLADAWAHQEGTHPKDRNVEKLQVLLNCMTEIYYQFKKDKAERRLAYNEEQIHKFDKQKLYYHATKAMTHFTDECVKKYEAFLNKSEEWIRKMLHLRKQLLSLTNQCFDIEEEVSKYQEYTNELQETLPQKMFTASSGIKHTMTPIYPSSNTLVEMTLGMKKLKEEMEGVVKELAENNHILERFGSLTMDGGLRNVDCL

[5] = biological target: T3, Serine/threonine-protein kinase D2 (Homo sapiens) (UniProt Q9BZL6)
T3 sequence (whole entry): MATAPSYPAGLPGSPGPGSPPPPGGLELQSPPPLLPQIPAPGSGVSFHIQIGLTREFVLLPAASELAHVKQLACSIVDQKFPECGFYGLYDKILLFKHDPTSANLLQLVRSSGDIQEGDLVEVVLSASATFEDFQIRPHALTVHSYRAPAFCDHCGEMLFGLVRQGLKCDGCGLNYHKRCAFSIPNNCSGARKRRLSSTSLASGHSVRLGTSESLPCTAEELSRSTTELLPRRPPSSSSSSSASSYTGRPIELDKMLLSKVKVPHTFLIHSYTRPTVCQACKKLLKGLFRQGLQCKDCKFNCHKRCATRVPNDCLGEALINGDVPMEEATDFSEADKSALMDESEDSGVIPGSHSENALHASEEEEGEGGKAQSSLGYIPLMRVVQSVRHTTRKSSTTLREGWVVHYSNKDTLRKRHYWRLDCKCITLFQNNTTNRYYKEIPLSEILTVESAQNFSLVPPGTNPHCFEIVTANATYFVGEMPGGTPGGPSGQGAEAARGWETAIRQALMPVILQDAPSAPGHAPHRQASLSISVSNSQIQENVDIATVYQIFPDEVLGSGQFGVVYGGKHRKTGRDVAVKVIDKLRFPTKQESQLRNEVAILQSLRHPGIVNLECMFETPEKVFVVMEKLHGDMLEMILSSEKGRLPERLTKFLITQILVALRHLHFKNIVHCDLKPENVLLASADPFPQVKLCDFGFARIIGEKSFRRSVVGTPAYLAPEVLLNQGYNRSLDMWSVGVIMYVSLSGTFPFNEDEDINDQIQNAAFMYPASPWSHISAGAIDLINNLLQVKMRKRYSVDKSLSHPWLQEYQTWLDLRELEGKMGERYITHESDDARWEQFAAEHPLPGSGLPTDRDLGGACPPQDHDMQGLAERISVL

[6] = biological target: RAC-beta serine/threonine-protein kinase (Homo sapiens) (UniProt P31751)
RAC-beta serine/threonine-protein kinase (Homo sapiens), sequence (P31751 whole entry): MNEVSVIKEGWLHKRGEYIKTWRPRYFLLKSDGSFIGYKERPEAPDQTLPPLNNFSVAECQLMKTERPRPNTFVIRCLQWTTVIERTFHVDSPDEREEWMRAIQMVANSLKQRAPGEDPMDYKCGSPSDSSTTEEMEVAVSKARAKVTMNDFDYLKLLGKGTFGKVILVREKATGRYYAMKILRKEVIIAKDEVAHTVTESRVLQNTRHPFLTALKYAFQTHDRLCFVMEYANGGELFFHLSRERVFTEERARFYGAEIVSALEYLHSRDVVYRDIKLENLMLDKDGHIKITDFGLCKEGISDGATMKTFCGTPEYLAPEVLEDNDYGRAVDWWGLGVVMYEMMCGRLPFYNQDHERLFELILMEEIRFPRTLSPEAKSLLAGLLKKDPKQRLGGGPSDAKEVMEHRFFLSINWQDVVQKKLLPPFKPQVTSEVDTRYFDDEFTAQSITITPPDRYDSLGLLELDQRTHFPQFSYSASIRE

[7] = biological target: T4, Tyrosine-protein kinase Tec (Homo sapiens) (UniProt P42680)
T4 sequence (whole entry): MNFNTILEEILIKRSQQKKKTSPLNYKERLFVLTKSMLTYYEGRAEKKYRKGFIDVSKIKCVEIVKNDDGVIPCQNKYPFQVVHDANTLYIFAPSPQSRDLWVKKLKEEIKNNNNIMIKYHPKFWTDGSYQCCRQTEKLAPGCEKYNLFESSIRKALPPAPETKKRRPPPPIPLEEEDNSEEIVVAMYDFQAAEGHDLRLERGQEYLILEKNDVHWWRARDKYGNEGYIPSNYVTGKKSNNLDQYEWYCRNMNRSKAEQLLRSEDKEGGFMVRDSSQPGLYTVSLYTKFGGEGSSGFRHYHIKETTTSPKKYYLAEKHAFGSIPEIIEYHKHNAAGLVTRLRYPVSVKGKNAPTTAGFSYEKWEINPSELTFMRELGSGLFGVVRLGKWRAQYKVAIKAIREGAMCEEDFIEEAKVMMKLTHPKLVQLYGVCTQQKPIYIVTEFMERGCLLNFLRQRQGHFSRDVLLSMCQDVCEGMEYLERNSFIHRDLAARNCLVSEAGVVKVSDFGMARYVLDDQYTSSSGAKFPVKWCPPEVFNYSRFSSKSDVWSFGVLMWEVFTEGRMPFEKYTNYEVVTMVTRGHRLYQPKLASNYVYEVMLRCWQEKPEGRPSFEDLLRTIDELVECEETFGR

Measured: residual activity

Serine/threonine-protein kinase D3 (Homo sapiens), sequence (O94806 whole entry): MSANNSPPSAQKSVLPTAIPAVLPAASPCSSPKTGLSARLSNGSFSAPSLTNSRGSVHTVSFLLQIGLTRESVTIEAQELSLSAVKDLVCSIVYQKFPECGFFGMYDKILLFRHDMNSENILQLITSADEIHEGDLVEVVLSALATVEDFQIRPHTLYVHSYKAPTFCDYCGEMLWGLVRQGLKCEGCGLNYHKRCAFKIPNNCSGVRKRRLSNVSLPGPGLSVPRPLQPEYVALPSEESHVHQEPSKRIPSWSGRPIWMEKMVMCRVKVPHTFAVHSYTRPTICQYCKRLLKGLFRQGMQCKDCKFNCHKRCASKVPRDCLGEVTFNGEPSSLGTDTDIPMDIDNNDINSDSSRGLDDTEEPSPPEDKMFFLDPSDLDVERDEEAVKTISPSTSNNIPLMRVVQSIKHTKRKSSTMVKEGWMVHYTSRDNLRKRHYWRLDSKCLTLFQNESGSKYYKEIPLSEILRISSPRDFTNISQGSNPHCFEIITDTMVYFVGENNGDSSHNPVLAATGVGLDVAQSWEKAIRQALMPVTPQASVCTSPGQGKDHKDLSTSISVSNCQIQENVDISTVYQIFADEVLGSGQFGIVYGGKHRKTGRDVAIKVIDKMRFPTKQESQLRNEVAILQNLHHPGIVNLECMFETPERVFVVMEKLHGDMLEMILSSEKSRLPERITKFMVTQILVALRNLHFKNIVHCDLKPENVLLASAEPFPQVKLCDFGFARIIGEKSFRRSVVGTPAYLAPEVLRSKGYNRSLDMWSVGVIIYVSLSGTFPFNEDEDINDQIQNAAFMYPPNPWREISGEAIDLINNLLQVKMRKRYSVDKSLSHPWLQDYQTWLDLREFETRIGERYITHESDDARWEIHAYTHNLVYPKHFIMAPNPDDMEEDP

CCc1ccccc1C(=O)Nc1n[nH]c2c(C)c(F)c(C3C(C#N)=C(C)N(C)C(C)=C3C#N)cc12 [BAY-3827]
inactive: [1] 88% | [2] 100% | [3] 100% | [4] 77% | [5] 87% | [6] 95% | [7] 91%

CC1=C(C#N)C(c2ccc3c(c2)c(NC(=O)c2ccccc2C)nn3C)C(C#N)=C(C)N1 [BAY-974]
inactive: [1] 72% | [2] 90% | [3] 77% | [4] 69% | [5] 95% | [6] 100% | [7] 100%
